Assay [1] concerns Myzus persicae. Put plainly: Antifeedant activity against Myzus persicae (green peach aphid) assessed feeding settling inhibition index at 50 ug/cm2 relative to untreated control. Format: functional.
In assay [2] the test system is Spodoptera littoralis. Put plainly: Nutritional effect in Spodoptera littoralis L6 larvae assessed as food consumption at 20 ug/insect administered through oral cannulation after 72 hr relative to untreated control. In kind it is functional.
Assay [3] concerns Spodoptera littoralis. Put plainly: Nutritional effect in Spodoptera littoralis L6 larvae assessed as weight gain at 20 ug/insect administered through oral cannulation after 72 hr relative to untreated control. Format: functional.
Assay [4] has as its system Spodoptera littoralis. Put plainly: Antifeedant activity against Spodoptera littoralis assessed as inhibition of feeding at 50 ug/cm2 by choice feeding assay relative to untreated control. In kind it is functional.
Assay [5] concerns Spodoptera littoralis. Put plainly: Antifeedant activity against Spodoptera littoralis assessed as inhibition of feeding by choice feeding assay relative to untreated control. Format: functional, organism-based.
Assay [6] has as its system Leptinotarsa decemlineata. Put plainly: Toxicity against Leptinotarsa decemlineata assessed as insect mortality administered through hemolymph injection after 72 hr. More on the design: concentration or dose not given beside the values. In kind it is functional.
Assay [7] relates to Leptinotarsa decemlineata. Nature of the assay: Antifeedant activity against Leptinotarsa decemlineata assessed as inhibition of feeding by no-choice feeding assay relative to untreated control. Format: functional, organism-based.
Assay [8] deals with Leptinotarsa decemlineata. Put plainly: Antifeedant activity against Leptinotarsa decemlineata assessed as inhibition of feeding at 50 ug/cm2 by no-choice feeding assay relative to untreated control. In kind it is functional.
The subject of assay [9] is Leptinotarsa decemlineata. Nature of the assay: Antifeedant activity against Leptinotarsa decemlineata assessed as inhibition of feeding by choice feeding assay relative to untreated control. In kind it is functional, organism-based.
The test system of assay [10] is Leptinotarsa decemlineata. Put plainly: Antifeedant activity against Leptinotarsa decemlineata assessed as inhibition of feeding at 50 ug/cm2 by choice feeding assay relative to untreated control. In kind it is functional.
The subject of assay [11] is Myzus persicae. Put plainly: Potency index, ratio of antifeedant activity of farnesol to compound against Myzus persicae (green peach aphid) assessed feeding settling inhibition index at 50 ug/cm2. Format: functional.

Where only a bound is given, the exact number is not on record here.

`C=C1CCC[C@@H]2[C@@](C)(CC(OC(C)=O)/C(=C/COC(C)=O)COC(C)=O)[C@H](C)CC[C@@]12C` (stereo partly specified): the inhibition at 50 µg/cm2 in assay [1] stood at 19.7%; in [4], 18.4%; in [8] it was 11.6%; in assay [10], 38.5%. The Activity in [2] is 93.02%; in assay [3] it was 104.75%. The EC50 in [5], in [7] and in [9] was > 50 microg/cm2 in each case. Besides, the mortality in [6] came to 32%.

Regarding `C=C1CCC[C@@H]2[C@@](C)(C/C=C(\CC=O)C(C)=O)[C@H](C)CC[C@@]12C`, the “fold change (FC)” value in assay [11] is 2. The inhibition at 50 µg/cm2 in assay [1] was found to be 45.6%; in assay [4], 14.7%; in assay [8], 98.9%; in assay [10], 89.9%. Also, the Activity in [2] is listed as 92.7%; in assay [3] it was 104.33%. The EC50 in [5] is listed as > 50 microg/cm2; in assay [7], 7.7 microg/cm2; in [9], 12.8 microg/cm2. The mortality in [6] is reported as 26%.

Turning to `C=C1CCC[C@@H]2[C@@](C)(C/C=C3/CC(OC(C)=O)OC3OC(C)=O)[C@H](C)CC[C@@]12C` (stereo partly specified), in [11], the “fold change (FC)” value was 2. Moreover, the inhibition at 50 µg/cm2 in [1] was 43.1%; in assay [4], 11.2%; in [8], 28.8%; in assay [10] it was 33.8%. Moreover, the figures for the Activity in [2] and in [3] were 110.26% and 110.18%, respectively. For the same molecule, the EC50 in assay [5], in [7] and in [9] was > 50 microg/cm2 in each case. In addition, in assay [6], the mortality was found to be 25%.

Take `CC(=O)OC/C=C(\COC(C)=O)C(C[C@@]1(C)[C@H](C)CC[C@]2(C)[C@@H]1CCCC2(O)CO)OC(C)=O` (stereo partly specified): the Activity in assay [2] is reported as 38.19%; in assay [3], 29.72%. Moreover, the inhibition at 50 µg/cm2 is 32.6% in assay [4], 86.5% in assay [8] and 97.1% in assay [10]. The EC50 in assay [5] is > 50 microg/cm2. The mortality in assay [6] is reported as 50%.

Regarding `C=C1CCC[C@@H]2[C@@](C)(CC(O)/C(=C/COC(C)=O)COC(C)=O)[C@H](C)CC[C@@]12C` (stereo partly specified), the “fold change (FC)” value in assay [11] is recorded as 2. In addition, the inhibition at 50 µg/cm2 was found to be 48.2% in [1], 42.5% in assay [4], 22.6% in assay [8] and 61.4% in assay [10]. The figures for the Activity in assay [2] and in [3] were 88.33% and 106.65%, respectively. Also, the EC50 in assay [5], in assay [7] and in [9] was > 50 microg/cm2 throughout. Also, the mortality in assay [6] was 26%.

For the molecule `CC(=O)OC/C=C(\COC(C)=O)C(C[C@@]1(C)[C@H](C)CC[C@]2(C)[C@@H]1CCCC21CO1)OC(C)=O` (stereo partly specified), the inhibition at 50 µg/cm2 in assay [1] turned out to be 26.3%; in assay [4] it was 17.9%; in assay [8], 40.7%; in assay [10] it was 96.6%. For the same molecule, the Activity is on record as 39.74% in assay [2] and 31.03% in assay [3]. For the same molecule, the EC50 in [5] was > 50 microg/cm2; in assay [7] it was > 50 microg/cm2; in [9] it was 6.4 microg/cm2. Further, the mortality in [6] is 50%.

As to `C=C1CCC[C@@H]2[C@@](C)(C/C=C(/C=O)CC=O)[C@H](C)CC[C@@]12C` [E-ISOLINARIDIAL], in assay [11], the “fold change (FC)” value amounted to 2. Further, the inhibition at 50 µg/cm2 is 44.3% in assay [1], 23.3% in assay [4], 90.7% in assay [8] and 90.1% in assay [10]. For the same molecule, the Activity in assay [2] is on record as 95.56%; in [3], 108.22%. Also, the results for the EC50 in assay [5], in assay [7] and in [9] were > 50 microg/cm2, 8.5 microg/cm2 and 10.5 microg/cm2, respectively. Also, in assay [6], the mortality came out at 0%.

For `C[C@@H]1CC[C@@H]2C(C)(C)C[C@]3(C)CC=C[C@]123` [SILPHINENE], the mortality in assay [6] was 24%. The EC50 in assay [7] was determined as 2.7 microg/cm2; in assay [9], 0.27 microg/cm2.

For `CC(C)=CCC/C(C)=C/CC/C(C)=C/CO` [FARNESOL], the inhibition at 50 µg/cm2 in assay [1] was 90.6%.

As to `CC(=O)OC/C=C(\COC(C)=O)[C@@H](C[C@@]1(C)[C@H](C)CC[C@@]2(C)C(C)=CCC[C@H]12)OC(C)=O`, the inhibition at 50 µg/cm2 turned out to be 33.5% in assay [1], 28.1% in assay [4], 35.5% in [8] and 31.4% in assay [10]. The Activity in assay [2] is 40.02%; in assay [3], 30.69%. In addition, the EC50 in assay [5], in assay [7] and in [9] was > 50 microg/cm2 throughout. For the same molecule, the mortality in assay [6] is on record as 8%.

Consider `CC(=O)OC1C/C(=C/C[C@@]2(C)[C@H](C)CC[C@]3(C)[C@@H]2CCC[C@@]32CO2)C(OC(C)=O)O1` (stereo partly specified), for which the figures for the Activity in assay [2] and in assay [3] were 55.54% and 26.37%, respectively. For the same molecule, the results for the inhibition at 50 µg/cm2 in assay [4], in [8] and in assay [10] were 73.9%, 73.3% and 91.2%, respectively. Besides, in [6], the mortality amounted to 42%.

The values are drawn from ChEMBL document CHEMBL3045829, “Structure- and species-dependent insecticidal effects of neo-clerodane diterpenes” (J Agric Food Chem, 2000).
